The text below walks through data of patent publication US8217029B2, “Oxazolidinone antibiotics” (Actelion Pharmaceuticals Ltd, priority 2007, dated 2012).

Converted amounts (≈) assume the structure as drawn.

The test system of this experiment is S aureus A798. In words: Minimal inhibitory concentration (MIC), microdilution method in cation-adjusted Mueller-Hinton Broth following NCCLS guidelines. The note with it: pH of test medium 7.2-7.3. It counts as cell-based. Put shortly:
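Broth microdilution per NCCLS M7-A4 in cation-adjusted Mueller-Hinton broth at pH 7.2-7.3; MIC reported in mg/l.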
`COc1ccc2nccc(N3CC[C@H](NC[C@@H]4CN(c5ccc(C)c(F)c5)C(=O)O4)C3)c2n1` [Example 67, (R)-3-(3-Fluoro-4-methyl-phenyl)-5-{[(S)-1-(6-methoxy-[1,5]naphthyridin-4-yl)-pyrrolidin-3-ylamino]-methyl}-oxazolidin-2-one] gave an MIC of 0.063 µg/mL (≈ 0.14 µM). Still for that read-out and setting: the result for `COc1ccc2nccc(N3CCC(CNC(=O)[C@@H]4CN(c5ccc(C)c(F)c5)C(=O)O4)C3)c2n1` (mixture of isomers) [Example 82, (S)-3-(3-Fluoro-4-methyl-phenyl)-2-oxo-oxazolidine-5-carboxylic acid [(RS)-1-(6-methoxy-[1,5]naphthyridin-4-yl)-pyrrolidin-3-ylmethyl]-amide] reads at most 0.031 µg/mL. Same read-out and setting: the result for `COc1ccc2nccc(N3CCC(CN(C)C[C@@H]4CN(c5ccc6c(c5)NC(=O)CS6)C(=O)O4)C3)c2n1` (mixture of isomers) [Example 117, 6-[(R)-5-({[(RS)-1-(6-Methoxy-[1,5]naphthyridin-4-yl)-pyrrolidin-3-ylmethyl]-methyl-amino}-methyl)-2-oxo-oxazolidin-3-yl]-4H-benzo[1,4]thiazin-3-one] reads at most 0.031 µg/mL. Compound `COc1ccc2ncc(F)c(N3CC(NC[C@@H]4CN(c5ccc(C)c(F)c5)C(=O)O4)C3)c2n1` [Example 46, (R)-5-{[1-(3-Fluoro-6-methoxy-[1,5]naphthyridin-4-yl)-azetidin-3-ylamino]-methyl}-3-(3-fluoro-4-methyl-phenyl)-oxazolidin-2-one] returned an MIC of at most 0.031 µg/mL.

In the case of `COc1ccc2ncnc(N3CCN(CC4CN(c5ccc6c(c5)NC(=O)CS6)C(=O)O4)CC3)c2c1` (racemic) [Example 7, (RS)-6-{5-[4-(6-Methoxy-quinazolin-4-yl)-piperazin-1-ylmethyl]-2-oxo-oxazolidin-3-yl}-4H-benzo[1,4]thiazin-3-one], the minimal inhibitory concentration (MIC) is at most 0.031 µg/mL. Same read-out and setting: to `COc1ccc2nccc(N3CCC(C(=O)NC[C@@H]4CN(c5ccc6c(c5)OCCO6)C(=O)O4)C3)c2n1` (mixture of isomers) [Example 85, (RS)-1-(6-Methoxy-[1,5]naphthyridin-4-yl)-pyrrolidine-3-carboxylic acid [(R)-3-(2,3-dihydro-benzo[1,4]dioxin-6-yl)-2-oxo-oxazolidin-5-ylmethyl]-amide] belongs 0.25 µg/mL. Take `COc1ccc2nccc(N3CC4C(C3)C4NC[C@@H]3CN(c4ccc(C)c(F)c4)C(=O)O3)c2n1` (stereo partly drawn) [Example 88, (R)-3-(3-Fluoro-4-methyl-phenyl)-5-{[(1a,5a,6a)-3-(6-methoxy-[1,5]naphthyridin-4-yl)-3-aza-bicyclo[3.1.0]hex-6-ylamino]-methyl}-oxazolidin-2-one]: the “MIC S aureus A798” value turned out to be 0.125 µg/mL (≈ 0.27 µM). `COc1ccc2nccc(N3CC(N(C)C[C@@H]4CN(c5cccc(N(C)C)c5)C(=O)O4)C3)c2n1` [Example 140, (R)-3-(3-Dimethylamino-phenyl)-5-({[1-(6-methoxy-[1,5]naphthyridin-4-yl)-azetidin-3-yl]-methyl-amino}-methyl)-oxazolidin-2-one] returned an MIC of 0.25 µg/mL (≈ 0.54 µM). As for `COc1ccc2nccc(N3CC(NC[C@@H]4CN(c5ccc6c(c5)NC(=O)CS6)C(=O)O4)C3)c2n1` [Example 53, 6-((R)-5-{[1-(6-Methoxy-[1,5]naphthyridin-4-yl)-azetidin-3-ylamino]-methyl}-2-oxo-oxazolidin-3-yl)-4H-benzo[1,4]thiazin-3-one], the MIC was at most 0.031 µg/mL. Same read-out and setting: the result for `COc1ccc2nccc(N3CC[C@@H](NC(=O)[C@@H]4CN(c5ccc(C)c(F)c5)C(=O)O4)C3)c2n1` [Example 62, (S)-3-(3-Fluoro-4-methyl-phenyl)-2-oxo-oxazolidine-5-carboxylic acid [(R)-1-(6-methoxy-[1,5]naphthyridin-4-yl)-pyrrolidin-3-yl]-amide] reads at most 0.031 µg/mL; that for `COc1ccc2nccc(N3CCN(CC4CN(c5ccc6c(c5)OCCO6)C(=O)O4)CC3)c2n1` (racemic) [Example 8, (RS)-3-(2,3-Dihydro-benzo[1,4]dioxin-6-yl)-5-[4-(6-methoxy-[1,5]naphthyridin-4-yl)-piperazin-1-ylmethyl]-oxazolidin-2-one], at most 0.031 µg/mL.
